Our source for the TGI and GI50 values is PubChem BioAssay (NCI).

Structures are written as SMILES. Where “and” joins values, the source holds several entries; their conditions need not be identical. Identical values can stand only once.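 The compound was tested at five concentrations on cells cultured in 96-well plates, with a 48-hour exposure period. GI50 = concentration required for 50% inhibition of growth. TGI denotes the concentration required for complete inhibition of growth.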

Among the test systems are A549 NSCLC; CCRF-CEM leukemia; DU-145 prostate; EKVX NSCLC; IGROV1 ovarian; MCF7 breast; MDA-N; NCI-H226 lung; OVCAR-5 ovarian; TK-10 renal; RXF 393 renal.
Common to all, as to experiment: growth of human tumour cells (NCI), 48 h

`O=C(CNc1ccccn1)Nn1cnc2ccc(S(=O)(=O)Nc3ccccn3)cc2c1=O`: the TGI with A549 NSCLC, in the experiment with CCRF-CEM leukemia, in the experiment on DU-145 prostate, with EKVX NSCLC, in the experiment with IGROV1 ovarian and in the experiment on MCF7 breast was greater than 100 µM throughout. For the same compound, the TGI in the experiment on MDA-N, with NCI-H226 lung, in the experiment on OVCAR-5 ovarian and in the experiment on TK-10 renal was greater than 100 µM throughout.

Turning to `CC(C)c1cccc(C(C)C)c1NC(=O)C(=O)Cc1nc2ccc([N+](=O)[O-])cc2[nH]c1=O`, the TGI with A549 NSCLC, in the experiment with CCRF-CEM leukemia, in the experiment with EKVX NSCLC, in the experiment on IGROV1 ovarian, in the experiment with NCI-H226 lung and in the experiment on OVCAR-5 ovarian was greater than 100 µM each time. The TGI in the experiment on RXF 393 renal and with TK-10 renal was greater than 100 µM in each case.

In the case of `CC(C)(C)OC(=O)NC1CCCC1C(=O)C1=CCCC1` (centres undefined), the TGI in the experiment with A549 NSCLC, with CCRF-CEM leukemia, with DU-145 prostate, in the experiment with IGROV1 ovarian, in the experiment with MDA-N and in the experiment on NCI-H226 lung was greater than 100 µM throughout. The TGI in the experiment with OVCAR-5 ovarian and with RXF 393 renal was greater than 100 µM throughout.

Regarding `Nc1nc(NNc2cccc(F)c2)cc(=O)[nH]1`, the TGI in the experiment with A549 NSCLC is greater than 100 µM; with CCRF-CEM leukemia it was greater than 100 µM; in the experiment with DU-145 prostate, greater than 100 µM; in the experiment on EKVX NSCLC, greater than 100 µM; in the experiment with IGROV1 ovarian, greater than 100 µM; with MCF7 breast it was 89.1 µM. The TGI in the experiment on NCI-H226 lung, in the experiment on OVCAR-5 ovarian and in the experiment on TK-10 renal was greater than 100 µM throughout.

Turning to `CC1=CC2C(C=C1)S(=O)(=O)N1CC21c1ccccc1` (centres undefined), the TGI in the experiment on A549 NSCLC, with CCRF-CEM leukemia, with IGROV1 ovarian, in the experiment on OVCAR-5 ovarian and in the experiment on TK-10 renal was greater than 100 µM throughout.

Turning to `CC(C)N(C(=O)C12C3C4C1C1C2C3C41C#N)C(C)C` (centres undefined), the TGI is greater than 100 µM in the experiment with A549 NSCLC; greater than 85.1 µM in the experiment with CCRF-CEM leukemia; greater than 100 µM in the experiment with EKVX NSCLC; greater than 100 µM with IGROV1 ovarian; greater than 100 µM in the experiment on NCI-H226 lung; greater than 100 µM with OVCAR-5 ovarian. The TGI in the experiment with RXF 393 renal and in the experiment with TK-10 renal was greater than 100 µM each time.

Regarding `CC(=O)Nc1[nH]n(C)c(=O)c1-c1nnc(C)s1`, the TGI in the experiment on A549 NSCLC, in the experiment with CCRF-CEM leukemia, with EKVX NSCLC, in the experiment with IGROV1 ovarian, in the experiment with NCI-H226 lung and in the experiment on OVCAR-5 ovarian was greater than 100 µM in each case. Besides, the TGI in the experiment with RXF 393 renal and in the experiment on TK-10 renal was greater than 100 µM each time.

For the compound `C[C@]12C=CC(=O)C=C1CC[C@@H]1[C@@H]2CC[C@@]2(C)[C@H]1CC[C@]2(O)C(N)=O`, the TGI in the experiment with A549 NSCLC, in the experiment with CCRF-CEM leukemia, with DU-145 prostate, with EKVX NSCLC, in the experiment with IGROV1 ovarian and with MDA-N was greater than 100 µM throughout. In addition, the TGI in the experiment on NCI-H226 lung, in the experiment on OVCAR-5 ovarian, with RXF 393 renal and in the experiment with TK-10 renal was greater than 100 µM each time.

Regarding `COc1cc2c(c(OC)c1OC)-c1ccc(SC)c(=O)cc1[C@@H](NCc1ccc(F)cc1)CC2`, the TGI in the experiment with A549 NSCLC is 75 µM and > 100 µM; with CCRF-CEM leukemia, 10.2 µM and > 100 µM; in the experiment with EKVX NSCLC, 75 µM and > 100 µM; with IGROV1 ovarian, 75 µM; with OVCAR-5 ovarian, 75 µM and > 100 µM; in the experiment on RXF 393 renal it was 75 µM and 19.5 µM. The TGI in the experiment with TK-10 renal was 75 µM and > 100 µM. Also, the GI50 with EKVX NSCLC was less than 0.0075 µM; with TK-10 renal, 0.182 µM.

Take `C=CCCC1(O)C(O)C(CO)O[C@H](O[C@@]2(CO)OC(CO)C(O)C2O)C1O` (some centres undefined): the TGI in the experiment on A549 NSCLC, in the experiment on CCRF-CEM leukemia, with DU-145 prostate, in the experiment with EKVX NSCLC, in the experiment with IGROV1 ovarian and in the experiment on MCF7 breast was greater than 100 µM each time. For the same compound, the TGI in the experiment with NCI-H226 lung, in the experiment with OVCAR-5 ovarian and in the experiment on TK-10 renal was greater than 100 µM each time.

Turning to `CCOC1=C2N=C(C(CC)c3ccccc3F)N=C2C(=O)c2ccccc21` (centres undefined), the TGI in the experiment with A549 NSCLC is greater than 100 µM; in the experiment on CCRF-CEM leukemia, greater than 100 µM; with EKVX NSCLC, greater than 100 µM; with NCI-H226 lung, greater than 100 µM; in the experiment on RXF 393 renal, 74.8 µM; in the experiment on TK-10 renal, greater than 100 µM.

On to `O=Cc1c[nH]c2c(=O)[nH]cnc12`, for which the TGI in the experiment with A549 NSCLC, with CCRF-CEM leukemia, in the experiment on EKVX NSCLC, in the experiment with IGROV1 ovarian, with RXF 393 renal and with TK-10 renal was greater than 100 µM each time.

With `CC(C)(C)N=CN1C=Cc2nc3ccccc3cc2C1`, the TGI in the experiment with A549 NSCLC, in the experiment with CCRF-CEM leukemia, in the experiment with EKVX NSCLC, in the experiment with IGROV1 ovarian, with OVCAR-5 ovarian and in the experiment on RXF 393 renal was greater than 100 µM throughout. Besides, the TGI in the experiment on TK-10 renal is greater than 100 µM.

`COCC(C)(C)N=CN1Cc2cc3ccccc3nc2C1`: the TGI in the experiment with A549 NSCLC, with CCRF-CEM leukemia, in the experiment with EKVX NSCLC, in the experiment with IGROV1 ovarian, in the experiment with NCI-H226 lung and with RXF 393 renal was greater than 100 µM each time. Further, the TGI in the experiment on TK-10 renal is greater than 100 µM.

Take `Cc1c(C)c2c(c(N)c1C#N)C(=O)N(O)C2=O`: the TGI in the experiment on A549 NSCLC, in the experiment on CCRF-CEM leukemia, with DU-145 prostate, in the experiment with EKVX NSCLC, in the experiment on IGROV1 ovarian and in the experiment with MCF7 breast was greater than 100 µM each time. Further, the TGI in the experiment on NCI-H226 lung, in the experiment on OVCAR-5 ovarian, with RXF 393 renal and in the experiment on TK-10 renal was greater than 100 µM each time.

In the case of `COc1ccc2[nH]c3c(c2c1)[C@H](c1ccccc1)C[C@@H]1C(=O)N(c2ccccc2)C(=O)[C@H]31`, the TGI was 35.8 µM in the experiment with A549 NSCLC; 95.2 µM in the experiment with CCRF-CEM leukemia; greater than 100 µM in the experiment with EKVX NSCLC; greater than 100 µM in the experiment on IGROV1 ovarian; 57.6 µM in the experiment on NCI-H226 lung; greater than 100 µM in the experiment with OVCAR-5 ovarian. The TGI in the experiment with RXF 393 renal was 36.1 µM; in the experiment with TK-10 renal, greater than 100 µM.

On to `CN(C)CCNc1ccc2ncn3c4ccccc4c(=O)c1c23`, for which the TGI in the experiment with A549 NSCLC is 5.79 µM; in the experiment with CCRF-CEM leukemia, greater than 100 µM; in the experiment on IGROV1 ovarian, 11.9 µM; with NCI-H226 lung, 6.05 µM; in the experiment with OVCAR-5 ovarian, 5.35 µM; in the experiment with TK-10 renal it was 46.7 µM.
